For assay [1], the target named is T1, Pathogen-related yeast 1 (Pry1), CAP domain (Pry1CAP) (Saccharomyces cerevisiae, UniProt P47032).
T1 construct: C-terminal CAP domain, Ser151 through Ala296 (Pry1CAP)
T1 sequence (P47032 151-296): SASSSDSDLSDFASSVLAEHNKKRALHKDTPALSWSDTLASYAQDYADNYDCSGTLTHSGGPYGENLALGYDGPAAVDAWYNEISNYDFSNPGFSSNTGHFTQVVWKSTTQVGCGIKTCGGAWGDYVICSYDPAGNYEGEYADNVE
Briefly: [3H]-cholesterol saturation radioligand binding with purified protein.

Assay [2] addresses CAP domain of pathogen-related yeast protein-1 (Pry1) from Saccharomyces cerevisiae (Saccharomyces cerevisiae). Briefly: SEC; 20 μg Pry1CAP injected on a Yarra SEC-2000 column, 0.5 ml/min, PBS pH 7.4 as mobile phase, calibrated with Bio-Rad gel filtration standards, in triplicate. Background: Size exclusion chromatography separates by hydrodynamic size, large species first.

A word on the Kd: it is the constant that tells how readily two partners part at equilibrium. A low value points to a tighter complex. The term stoichiometry N denotes the number of molecules, sites or subunits per partner or assembly.

In assay [1], `CC(C)CCC[C@@H](C)[C@H]1CC[C@H]2[C@@H]3CC=C4C[C@@H](O)CC[C@]4(C)[C@H]3CC[C@]12C` [cholesterol] yielded a Kd of 2080 ± 70 nM.

On to “CAP domain of pathogen-related yeast protein-1 (Pry1) from Saccharomyces cerevisiae (domain or fragment)”, for which, in assay [2], the stoichiometry N amounted to 2.

For the origin of these results see paper PMC4921858, “Structural and functional characterization of the CAP domain of pathogen-related yeast 1 (Pry1) protein” (Scientific Reports, 2016).
